Square brackets hold non-standard residues; d marks the D form. Peptide text beside a SMILES is read from it. * marks the point of attachment. Dopa = N[C@@H](Cc1ccc(O)c(O)c1)C(=O)O; αMeF = C[C@](N)(Cc1ccccc1)C(=O)O; Cha = N[C@@H](CC1CCCCC1)C(=O)O; Ac6c = NC1(C(=O)O)CCCCC1; Ac5c = NC1(C(=O)O)CCCC1; Aib = CC(C)(N)C(=O)O; OcHex = C1CCC(O*)CC1; OBn = c1ccc(CO*)cc1; OiPr = CC(C)O*
How the values were obtained:
Format in all cases: functional
Rattus norvegicus [1] = assay: Antiparkinsonian activity in 6-hydroxydopamine lesioned Wistar rat assessed as duration of activity at 63.4 umol/kg, po measured every 10 mins for 240 mins relative to L-DOPA
Rattus norvegicus [2] = assay: Antiparkinsonian activity in 6-hydroxydopamine lesioned Wistar rat assessed as peak activity by measuring contralateral rotations at 63.4 umol/kg, po measured every 10 mins for 240 mins relative to L-DOPA
Rattus norvegicus [3] = assay: Antiparkinsonian activity in 6-hydroxydopamine lesioned Wistar rat assessed as AUC activity by measuring contralateral rotations at 63.4 umol/kg, po measured every 10 mins for 240 mins relative to L-DOPA
Rattus norvegicus [4] = assay: Antiparkinsonian activity in 6-hydroxydopamine lesioned Wistar rat assessed as duration of activity at 63.4 umol/kg, ip measured every 10 mins for 240 mins relative to L-DOPA
Rattus norvegicus [5] = assay: Antiparkinsonian activity in 6-hydroxydopamine lesioned Wistar rat assessed as peak activity by measuring contralateral rotations at 63.4 umol/kg, ip measured every 10 mins for 240 mins relative to L-DOPA
Rattus norvegicus [6] = assay: Antiparkinsonian activity in 6-hydroxydopamine lesioned Wistar rat assessed as AUC activity by measuring contralateral rotations at 63.4 umol/kg, ip measured every 10 mins for 240 mins relative to L-DOPA

SMILES	Activity (Rattus norvegicus [1])	Activity (Rattus norvegicus [2])	Activity (Rattus norvegicus [3])	Activity (Rattus norvegicus [4])	Activity (Rattus norvegicus [5])	Activity (Rattus norvegicus [6])
CC(C)CCOC(=O)[C@H](Cc1ccc(O)c(O)c1)NC(=O)C(C)(C)N.Cl	49%	59%	79%	–	–	–
COC(=O)[C@H](Cc1ccc(OC(C)=O)c(OC(C)=O)c1)NC(=O)C(C)(C)N.Cl	73%	69%	55%	–	–	–
COC(=O)[C@H](Cc1ccc(OC(C)=O)c(OC(C)=O)c1)NC(=O)C1(N)CCCCC1.Cl	42%	55%	42%	–	–	–
COC(=O)[C@H](Cc1ccc(OC(C)=O)c(OC(C)=O)c1)NC(=O)C1(N)CCCC1.Cl	44%	61%	39%	–	–	–
COC(=O)[C@H](Cc1ccc(OC(C)=O)c(OC(C)=O)c1)NC(=O)[C@@H](N)CC1CCCCC1.Cl	–	–	–	27%	51%	32%
CC(=O)Oc1ccc(C[C@H](NC(=O)C(C)(C)N)C(=O)O)cc1OC(C)=O.Cl	45%	66%	42%	–	–	–
COC(=O)[C@H](Cc1ccc(O)c(O)c1)NC(=O)C1(N)CCCC1.Cl (H-[Ac5c]-[Dopa]-OMe)	97%	105%	78%	–	–	–
COC(=O)[C@H](Cc1ccc(O)c(O)c1)NC(=O)C1(N)CCCCC1.Cl (H-[Ac6c]-[Dopa]-OMe)	84%	107%	88%	–	–	–
CC(C)(N)C(=O)N[C@@H](Cc1ccc(O)c(O)c1)C(=O)OCc1ccccc1.Cl (H-[Aib]-[Dopa]-OBn)	38%	71%	46%	–	–	–
CC(C)(N)C(=O)N[C@@H](Cc1ccc(O)c(O)c1)C(=O)O.Cl (H-[Aib]-[Dopa]-OH)	57%	80%	65%	–	–	–
COC(=O)[C@H](Cc1ccc(O)c(O)c1)NC(=O)C(C)(C)N.Cl (H-[Aib]-[Dopa]-OMe)	–	–	–	63%	77%	69%
CC(C)(N)C(=O)N[C@@H](Cc1ccc(O)c(O)c1)C(=O)OC1CCCCC1.Cl (H-[Aib]-[Dopa]-OcHex)	70%	82%	105%	–	–	–
CC(C)OC(=O)[C@H](Cc1ccc(O)c(O)c1)NC(=O)C(C)(C)N.Cl (H-[Aib]-[Dopa]-OiPr)	72%	149%	116%	–	–	–
COC(=O)[C@H](Cc1ccc(O)c(O)c1)NC(=O)[C@@H](N)CC1CCCCC1.Cl (H-[Cha]-[Dopa]-OMe)	45%	53%	40%	–	–	–
C[C@](N)(Cc1ccccc1)C(=O)N[C@@H](Cc1ccc(O)c(O)c1)C(=O)O.Cl (H-[αMeF]-[Dopa]-OH)	40%	37%	26%	–	–	–
